Experimental data as given in US20240067603A1, “CUBANYL BIGUANIDE COMPOUNDS” (REGENTS OF THE UNIVERSITY OF MINNESOTA, priority 2020, published 2024).

Legend:
CYP3A4 [1] = biological target: T1, CYP3A4 (Homo sapiens, UniProt P08684); parameters: purchased Corning; host or cells: insect cells (microsomes); settings: inhibiting EET biosynthesis; background statement; cited from earlier work
MCF-7 tumors [2] = settings: background statement; cited from earlier work
T47D = experiment: Inhibition of mammary carcinoma cell line T47D; format: cell-based; settings: Table 5, human, ERα+, HER2−
Description: 3-(4,5-Dimethylthiazol-2-yl)-2,5-diphenyltetrazolium Bromide (MTT) Cell Proliferation Assay. To cells grown in 96-well-tissue culture plate, 20 μl/well of MTT solution (5 mg/ml in PBS) was added. After 1-2 hours incubation at 37° C., the plate was centrifuged. Supernatant was discarded and 100 μl DMSO was added to dissolve water insoluble formazan, and the absorbance was read at 540 nm with a plate reader.

MCF-7 tumors [3] = experiment: MCF-7 ER+ mammary tumor model; format: in vivo, mice
CYP3A4 [4] = biological target: T1, CYP3A4; experiment: Stability with recombinant human CYP3A4; format: in vitro ADME; parameters: purchased Corning; host or cells: insect cells (microsomes)
Description: Stability of HCB with recombinant human CYP3A4 and CYP2C8 enzymes was evaluated. 10 μM HCB was tested wich CYP3A4 and 2C8 (200 pmol/L) (Table 8). NADPH (2 mM) was added as a cofactor. Total volume was 200 μL.
HCB was incubated for 0, 30, or 60 min at 37° C. Incubations were quenched with 2 volumes of acetonitrile followed by centrifugation for 10 min at 16,000 g.

EO771 = experiment: Oxygen consumption rate (OCR), EO771; format: cell-based, mouse (C57BL/6)
Description: Measurement of oxygen consumption rate (OCR). Cells were maintained in growth medium consisting of 10% FBS at 37° C. with 5% CO2 and seeded at 25,000 cells per well in a 96-well XF96 cell culture microplates (Agilent, Santa Clara, CA). An 96 well XF sensor cartridge was hydrated and equilibrated with 200 ul calibrant in each well at 37° C. without CO2 overnight. Growth media was replaced with 150 μL DMEM based assay media (a non-buffered medium including 2 mM L-glutamine but no sodium bicarbonate (buffering agent), glucose, or sodium pyruvate, Agilent, Santa Clara, CA) the next day and cells were incubated CO2 free for 1 hour before the measurement of OCR by a Seahorse XFe Extracellular Flux Analyzer (Agilent, Santa Clara, CA), which measures uptake and excretion of metabolic end products in real time. After baseline measurements, 20 μl assay medium containing control vehicle or drugs were injected into corresponding wells. OCRs were measured periodically and can be reported in pmoles/minute or normalized against baseline measurements before treatment.

MCF-7 cells [5] = experiment: Mitochondrial swelling, JC-1 confocal imaging in MCF-7 cells; format: cell-based, human; settings: 10 μM, FIG. 5
Description: FIG. 5. Mitochondrial swelling by HCB treatment in MCF-7 cells. MCF-7 cells were seeded at 30,000 cells/well into a chambered coverslip and treated with HCB or DMSO for 2 hours. JC-1 potential sensitive dye was added to a final concentration of 20 μM and incubation continued for an additional half an hour. Cell was then washed and imaged with a confocal microscope. Active mitochondria are stained yellow to orange. White arrows indicate swollen mitochondria.

CYP3A4 [6] = biological target: T1, CYP3A4; experiment: Midazolam hydroxylation by CYP3A4 in Nanodiscs; format: biochemical
Description: Titration of ˜6 uM CYP3A4 in POPC Nanodiscs was done using 16 mM stock solution obtained by 6-fold dilution of the original 100 mM DMSO solution in methanol. Aliquots of 0.1-0.2 μL were added to 120 μL solution of CYP3A4-ND in semi-micro cell (10 mm pathlength). Spectra with background corrected for scattering are shown in FIG. 17, and titration data points in FIG. 18.
These concentrations were selected based on IC50 for arachidonic acid metabolism mentioned in the first e-mail (low HCB concentration) and on our titration results. We used seven MDZ concentrations and measured both 1 OH and 4 OH hydroxy-MDZ products using HPLC with absorbance detection at 240 nm. Results are shown below in FIG. 19.

MCF-7 cells [7] = experiment: Oxygen consumption rate (OCR), Seahorse XFe, MCF-7; format: cell-based, human
Description: FIGS. 3A-3B. Effects of DCB (FIG. 3B) and HCB (FIG. 3A) on MCF-7 cells respiration. MCF-7 cells were seeded at 25,000 cells/well into a 96-well XF96 cell microplate. Growth media was replaced with 150 μL metabolism assay media the next day and cells were incubated CO2 free for 1 hour before the measurement of oxygen consumption rate (OCR) every seven minutes by a Seahorse XFe analyzer. Drugs were injected into the media after the fifth measurement (indicated by time point A and the dashed line). Results are reported as mean of percent of base OCR (OCR of the fifth measurement)±S.D. (n=12 for DMSO and 16 for treatment groups).
Measurement of oxygen consumption rate (OCR). Cells were maintained in growth medium consisting of 10% FBS at 37° C. with 5% CO2 and seeded at 25,000 cells per well in a 96-well XF96 cell culture microplates (Agilent, Santa Clara, CA). An 96 well XF sensor cartridge was hydrated and equilibrated with 200 ul calibrant in each well at 37° C. without CO2 overnight. […] OCRs were measured periodically and can be reported in pmoles/minute or normalized against baseline measurements before treatment.

AMPKα = AMPKα phosphorylation (Thr172) in MCF-7 cells, Western blotting; format: cell-based, human; settings: 10 μM, with and without serum, FIG. 7
Description: FIG. 7. Effect of HCB on MCF-7 AMPKα phosphorylation (Thr172). MCF-7 cells were grown in complete media to 70% confluency and treated with 10 μM HCB. Cells were harvested at varied time (0-24 hr) and total proteins were extracted and analyzed by Western blotting. For 0% serum experiment, complete media was replaced with serum, phenol red and antibiotics free media 16 hours before treatment. Quantitation results are expressed as mean±S.D. (n=3, * indicates statistically significant difference, p<0.05). MCF-7 cells were grown in complete media (10% serum) to 80% confluence. Left panel: HCB was added to a final concentration of 10 μM in complete media; Right panel: complete media was replaced with serum free media and serum starved for 16 hours before HCB was added to a final concentration of 10 μM. At indicated time points after the addition of HCB, cells were harvested and analyzed by Western blotting. AMPK activation was reported as fractional Thr172 phosphorylation±S.D. (n=3, * indicates statistically significant difference from control).

T1 sequence (P08684 whole entry): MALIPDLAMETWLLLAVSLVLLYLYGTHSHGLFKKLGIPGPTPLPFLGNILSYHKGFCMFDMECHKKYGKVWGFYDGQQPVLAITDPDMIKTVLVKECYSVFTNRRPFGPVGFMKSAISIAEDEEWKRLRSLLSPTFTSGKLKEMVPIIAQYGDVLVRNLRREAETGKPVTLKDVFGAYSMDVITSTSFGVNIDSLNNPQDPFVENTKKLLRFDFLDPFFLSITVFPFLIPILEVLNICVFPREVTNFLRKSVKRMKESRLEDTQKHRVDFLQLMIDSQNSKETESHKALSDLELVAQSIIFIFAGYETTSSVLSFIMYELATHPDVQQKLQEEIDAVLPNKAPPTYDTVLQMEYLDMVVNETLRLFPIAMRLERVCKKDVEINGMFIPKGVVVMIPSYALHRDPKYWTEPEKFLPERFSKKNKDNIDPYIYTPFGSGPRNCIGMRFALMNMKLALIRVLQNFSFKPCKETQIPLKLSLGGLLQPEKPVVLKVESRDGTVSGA

Structure (SMILES) | fold more potent than metformin (CYP3A4 [1]) [fold] | growth of the MCF-7 ER+ mammary tumor model (MCF-7 tumors [2]) | IC50 (T47D) [µM] | tumor control (MCF-7 tumors [3]; subcutaneous route at the MTD, compared with other route) | oxidative phosphorylation in ER+/HER2− MCF-7 tumors (MCF-7 tumors [3]; subcutaneous, MTD) | parent metabolite peak area after 60 min (CYP3A4 [4]; 10 μM HCB, recombinant human CYP3A4, NADPH 2 mM) [%] | degradation pathways (CYP3A4 [4]; recombinant human CYP3A4 and CYP2C8) | OCR Inhibition [HCB] (uM) v vs. control (P < 0.05) (EO771) [µM] | effect on mitochondrial tubule networks (MCF-7 cells [5]) | inhibition of MDZ hydroxylation (CYP3A4 [6]; 5.9 uM HCB, CYP3A4 Nanodiscs) | effect on the 1 OH/4 OH ratio of MDZ hydroxylation (CYP3A4 [6]; 64 uM HCB) | effect on oxidative phosphorylation (OCR) (MCF-7 cells [7]; 10 μM, MCF-7 cells, FIGS. 3A-3B) | OCR Inhibition [HCB] (uM) v vs. control (P < 0.05) (MCF-7 cells [7]; MCF-7) [µM] | AMPK phosphorylation (AMPKα)
CCCCCCNC(=N)NC(=N)NCc1ccccc1 [HBB, N1-hexyl-N5-benzyl-biguanide] | 100 | inhibits growth | 22 | equally effective | inhibit oxidative phosphorylation | – | – | – | – | – | – | – | – | –
CCCCCCNC(=N)NC(=N)NCC12C3C4C5C3C1C5C42 (centres unmarked) [HCB, Hexyl Cubanomethyl Biguanide] | – | – | – | – | – | 93.91 | oxidation, dealkylation, and hydrogenation | 20 | caused loss of mitochondrial tubule networks | Significant inhibition | clear and reproducible effect | inhibited oxidative phosphorylation | 10 | potent activation
